Reference: patent publication US20110098296A1, “Thiazole And Oxazole Kinase Inhibitors” (priority 2007, published 2011)
Structures can show the parent of a compound that is named as a salt.

Assays:
[1] = biological target: T1, EGFR (Homo sapiens, UniProt P00533); experiment: EGFR substrate phosphorylation assay (HTRF); format: biochemical; details: Method (A): Enzyme Mix incubated with compound at 20° C. for 1 hr, reaction started by adding Substrate Mix
T1 construct: made in house; host or cells: baculovirus expression system
T1 sequence (P00533 25-1210): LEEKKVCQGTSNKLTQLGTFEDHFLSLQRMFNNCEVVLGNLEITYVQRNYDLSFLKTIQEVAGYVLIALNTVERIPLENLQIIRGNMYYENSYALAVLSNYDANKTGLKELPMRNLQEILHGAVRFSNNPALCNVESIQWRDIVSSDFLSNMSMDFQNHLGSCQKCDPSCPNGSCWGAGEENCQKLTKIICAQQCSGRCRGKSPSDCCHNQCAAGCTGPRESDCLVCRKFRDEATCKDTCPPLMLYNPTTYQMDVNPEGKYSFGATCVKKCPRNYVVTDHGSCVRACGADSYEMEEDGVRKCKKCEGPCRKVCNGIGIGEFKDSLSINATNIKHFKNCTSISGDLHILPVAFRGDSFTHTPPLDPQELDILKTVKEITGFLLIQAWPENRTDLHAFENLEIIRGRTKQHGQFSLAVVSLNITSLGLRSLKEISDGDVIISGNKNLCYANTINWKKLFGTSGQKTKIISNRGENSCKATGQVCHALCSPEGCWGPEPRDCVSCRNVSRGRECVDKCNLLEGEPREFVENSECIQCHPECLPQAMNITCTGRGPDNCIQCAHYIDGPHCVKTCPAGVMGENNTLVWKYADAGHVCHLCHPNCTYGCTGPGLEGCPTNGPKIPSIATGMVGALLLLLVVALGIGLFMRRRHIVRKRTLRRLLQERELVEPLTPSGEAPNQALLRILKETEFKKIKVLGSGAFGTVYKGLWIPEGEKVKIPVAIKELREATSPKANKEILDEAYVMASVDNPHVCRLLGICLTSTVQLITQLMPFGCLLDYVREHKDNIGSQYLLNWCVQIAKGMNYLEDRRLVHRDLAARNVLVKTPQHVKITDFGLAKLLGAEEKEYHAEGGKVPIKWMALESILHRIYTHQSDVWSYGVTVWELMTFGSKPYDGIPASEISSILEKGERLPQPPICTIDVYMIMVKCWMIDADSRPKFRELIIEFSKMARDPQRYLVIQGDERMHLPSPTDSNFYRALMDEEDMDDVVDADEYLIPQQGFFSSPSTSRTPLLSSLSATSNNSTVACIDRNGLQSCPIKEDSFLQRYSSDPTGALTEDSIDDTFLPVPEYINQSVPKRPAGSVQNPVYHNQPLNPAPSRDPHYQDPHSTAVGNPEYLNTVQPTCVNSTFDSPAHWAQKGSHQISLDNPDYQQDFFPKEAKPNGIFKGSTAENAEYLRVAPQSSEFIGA
Procedure, shortened: (§1)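 Baculovirus-expressed kinase (0.8 nM EGFR or 10 nM ErbB2 in enzyme mix) with Peptide C 0.8 μM and ATP 20 μM (substrate-mix levels), MOPS pH 7.5, MnCl2; 90 min, 20 °C, HTRF anti-phosphotyrosine. Method A adds 1 h enzyme–compound preincubation; B none. pIC50, final compound 0.00027–47.6 μM.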

[2] = biological target: T2, ErbB2 (Homo sapiens, UniProt P04626); experiment: ErbB-2 substrate phosphorylation assay (HTRF); format: biochemical; details: Method (A): Enzyme Mix incubated with compound at 20° C. for 1 hr, reaction started by adding Substrate Mix
T2 construct: made in house; host or cells: baculovirus expression system
T2 sequence (P04626 23-1255): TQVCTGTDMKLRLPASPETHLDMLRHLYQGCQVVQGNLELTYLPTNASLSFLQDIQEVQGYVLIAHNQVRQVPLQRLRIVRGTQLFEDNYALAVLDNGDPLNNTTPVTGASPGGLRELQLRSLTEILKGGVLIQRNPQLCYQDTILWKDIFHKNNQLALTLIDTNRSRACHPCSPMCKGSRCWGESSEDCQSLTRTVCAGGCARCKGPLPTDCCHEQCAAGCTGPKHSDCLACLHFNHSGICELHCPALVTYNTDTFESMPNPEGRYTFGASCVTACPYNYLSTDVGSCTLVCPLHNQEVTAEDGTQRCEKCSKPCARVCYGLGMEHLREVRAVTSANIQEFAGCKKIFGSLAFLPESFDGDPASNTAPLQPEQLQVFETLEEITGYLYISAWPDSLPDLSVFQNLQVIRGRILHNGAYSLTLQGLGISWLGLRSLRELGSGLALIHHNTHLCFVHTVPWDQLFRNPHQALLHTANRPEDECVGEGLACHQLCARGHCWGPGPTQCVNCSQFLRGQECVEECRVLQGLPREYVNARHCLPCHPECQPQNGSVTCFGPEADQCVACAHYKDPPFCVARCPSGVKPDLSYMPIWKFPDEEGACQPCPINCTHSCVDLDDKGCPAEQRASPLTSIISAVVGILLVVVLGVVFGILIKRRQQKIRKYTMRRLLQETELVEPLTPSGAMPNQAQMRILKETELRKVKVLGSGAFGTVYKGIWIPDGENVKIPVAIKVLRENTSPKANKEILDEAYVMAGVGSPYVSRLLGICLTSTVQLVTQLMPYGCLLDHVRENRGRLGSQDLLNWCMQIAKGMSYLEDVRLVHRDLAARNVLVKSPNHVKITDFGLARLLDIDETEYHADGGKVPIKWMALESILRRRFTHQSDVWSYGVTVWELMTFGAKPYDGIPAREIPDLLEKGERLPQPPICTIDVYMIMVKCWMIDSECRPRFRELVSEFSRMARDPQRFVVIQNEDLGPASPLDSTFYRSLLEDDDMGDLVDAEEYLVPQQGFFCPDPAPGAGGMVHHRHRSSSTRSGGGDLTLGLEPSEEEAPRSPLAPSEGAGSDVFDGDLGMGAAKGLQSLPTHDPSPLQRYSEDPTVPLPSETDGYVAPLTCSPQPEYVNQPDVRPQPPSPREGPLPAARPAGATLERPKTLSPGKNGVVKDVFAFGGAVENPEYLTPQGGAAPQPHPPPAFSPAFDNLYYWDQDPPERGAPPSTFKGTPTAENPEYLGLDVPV
Procedure, shortened: as §1

[3] = test system: HN5 tumor cells; experiment: Method B: CellTiter-Glo Growth Inhibition Assay, HN5; format: cell-based; details: Homo sapiens, 72 h, 3 days
Procedure: (§2) Human breast tumor cells (BT474) were cultured in RPMI, (Invitrogen, 22400) containing 10% fetal bovine serum (FBS). Human head and neck tumor cells (HN5) were cultured in low glucose DMEM (Invitrogen, 12320) containing 10% FBS. Human colon tumor cells (Colo205) were cultured in DMEM (Invitrogen, 10564) containing 10% FBS. Human melanoma cancer cells (SK-MEL-28) were incubated in DMEM (Invitrogen). All cell lines were maintained at 37° C. in a humidified 5% CO2, 95% air incubator. Cells were harvested using trypsin/EDTA, counted using a haemocytometer, and plated in 30 μL of the appropriate media described above, at the following densities, in a half-area, black-walled, 96-well tissue culture plate (Corning 3882): BT474 3,000 cells/well, HN5 500 cells/well, Colo205 3,000 cells/well, and SK-MEL-28 500 cells/well). The next day, compounds were diluted in DMEM containing […] gentamicin, from 10 mM stock solutions in DMSO. 30 μL/well of these dilutions were added to the 30 μL/well of media currently on the cell plates. Medium containing 0.6% DMSO was added to control wells. The final concentration of DMSO in all wells was 0.3%. Cells were incubated at 37° C., 5% CO2 for 3 days. Cell biomass was estimated using CellTiter-Glo® reagent (Promega G7571). Briefly, plates were removed from the incubator and allowed to equilibrate to rt for 30 minutes. 25-60 μL of CellTiter-Glo® reagent were added to each well of the treated cells and plates were shaken on an orbital plate shaker for 2 mins. Plates were incubated without shaking for 30 more mins and read in a luminometer with an integration time of 0.5 seconds per well. Percent inhibition of cell growth was calculated relative to vehicle-treated control wells. Concentration of compound that inhibits 50% of vehicle control cell growth (IC50) was interpolated using nonlinear regression (Levenberg-Marquardt) and the equation, y=V max*(1−(x/(K+x)))+Y2, where “K” was equal to the IC50.

[4] = test system: BT474 tumor cells; experiment: Method B: CellTiter-Glo Growth Inhibition Assay, BT474; format: cell-based; details: Homo sapiens, BT-474, 72 h, 3 days
Procedure: as §2

[5] = test system: Colo205 tumor cells; experiment: Method B: CellTiter-Glo Growth Inhibition Assay, Colo205; format: cell-based; details: Homo sapiens, COLO 205, 72 h, 3 days
Procedure: as §2

SMILES | IC50 [1] [nM] | IC50 [2] [nM] | IC50 [3] [nM] | IC50 [4] [nM] | IC50 [5] [nM]
O=C(Nc1cccc(-c2nc(NCCCN3CCOCC3)sc2-c2ccnc(Nc3cccc(F)c3)n2)c1)c1c(F)cccc1F [Example 30, 2,6-Difluoro-N-[3-(5-{2-[(3-fluorophenyl)amino]-4-pyrimidinyl}-2-{[3-(4-morpholinyl)propyl]amino}-1,3-thiazol-4-yl)phenyl]benzamide] | < 100 | < 100 | 100 to 1000 | 100 to 1000 | > 1000
Nc1nc(-c2cccc(NC(=O)Cc3cccs3)c2)c(-c2ccnc(Nc3cccc(F)c3)n2)s1 [Example 64, N-[3-(2-Amino-5-{2-[(3-fluorophenyl)amino]-4-pyrimidinyl}-1,3-thiazol-4-yl)phenyl]-2-(2-thienyl)acetamide] | < 100 | 100 to 1000 | 100 to 1000 | 100 to 1000 | > 1000
COc1ccc(Nc2nccc(-c3scnc3-c3cccc(NC(=O)Cc4cccs4)c3)n2)cc1OCCN(C)C [Example 78, N-{3-[5-(2-{[3-{[2-(Dimethylamino)ethyl]oxy}-4-(methyloxy)phenyl]amino}-4-pyrimidinyl)-1,3-thiazol-4-yl]phenyl}-2-(2-thienyl)acetamide] | < 100 | < 100 | 100 to 1000 | 100 to 1000 | 100 to 1000
CN(C)Cc1cccc(Nc2nccc(-c3scnc3-c3cccc(NC(=O)Cc4cccs4)c3)n2)c1 [Example 81] | < 100 | < 100 | 100 to 1000 | 100 to 1000 | 100 to 1000
CCN(CC)CCOc1cccc(Nc2nccc(-c3scnc3-c3cccc(NC(=O)Cc4cccs4)c3)n2)c1 [Example 82, N-[3-(5-{2-[(3-{[2-(Diethylamino)ethyl]oxy}phenyl)amino]-4-pyrimidinyl}-1,3-thiazol-4-yl)phenyl]-2-(2-thienyl)acetamide] | < 100 | < 100 | 100 to 1000 | 100 to 1000 | 100 to 1000
CN(C)C1Cc2ccc(Nc3nccc(-c4scnc4-c4cccc(NC(=O)Cc5cccs5)c4)n3)cc2C1 (stereo not shown) [Example 83, N-{3-[5-(2-{[2-(Dimethylamino)-2,3-dihydro-1H-inden-5-yl]amino}-4-pyrimidinyl)-1,3-thiazol-4-yl]phenyl}-2-(2-thienyl)acetamide] | < 100 | < 100 | 100 to 1000 | < 100 | 100 to 1000
O=C(Cc1cccs1)Nc1cccc(-c2ncsc2-c2ccnc(Nc3ccc4c(c3)OCC(=O)N4)n2)c1 [Example 85, N-[3-(5-{2-[(3-Oxo-3,4-dihydro-2H-1,4-benzoxazin-7-yl)amino]-4-pyrimidinyl}-1,3-thiazol-4-yl)phenyl]-2-(2-thienyl)acetamide hydrochloride] | < 100 | < 100 | 100 to 1000 | 100 to 1000 | > 1000
O=C(Cc1cccs1)Nc1cccc(-c2ncsc2-c2ccnc(Nc3ccc4c(c3)NC(=O)CO4)n2)c1 [Example 86, N-[3-(5-{2-[(3-Oxo-3,4-dihydro-2H-1,4-benzoxaziN-6-yl)amino]-4-pyrimidinyl}-1,3-thiazol-4-yl)phenyl]-2-(2-thienyl)acetamide hydrochloride] | < 100 | 100 to 1000 | 100 to 1000 | 100 to 1000 | 100 to 1000
CN(C)CCOc1ccc(Nc2nccc(-c3scnc3-c3cccc(NC(=O)c4c(F)cccc4F)c3)n2)cc1Cl [Example 89] | < 100 | < 100 | < 100 | < 100 | 100 to 1000
CCN(CC)CCOc1cccc(Nc2nccc(-c3scnc3-c3cccc(NC(=O)c4c(F)cccc4F)c3)n2)c1 [Example 92, N-[3-(5-{2-[(3-{[2-(Diethylamino)ethyl]oxy}phenyl)amino]-4-pyrimidinyl}-1,3-thiazol-4-yl)phenyl]-2,6-difluorobenzamide-formic acid] | < 100 | < 100 | < 100 | < 100 | 100 to 1000
Cc1nc(-c2cccc(NC(=O)Cc3cccs3)c2)c(-c2ccnc(Nc3cccc(F)c3)n2)s1 [Example 138, N-[3-(5-{2-[(3-Fluorophenyl)amino]-4-pyrimidinyl}-2-methyl-1,3-thiazol-4-yl)phenyl]-2-(2-thienyl)acetamide] | 100 to 1000 | > 1000 | > 1000 | > 1000 | > 1000

The next lines start with the values.

IC50 [1] [nM] | IC50 [2] [nM] | IC50 [3] [nM] | IC50 [4] [nM] | IC50 [5] [nM] | SMILES
< 100 | < 100 | < 100 | < 100 | 100 to 1000 | COc1ccc(Nc2nccc(-c3sc(N)nc3-c3cccc(NC(=O)c4c(F)cccc4F)c3)n2)cc1N(C)C [Example 19, N-{3-[2-Amino-5-(2-{[3-(dimethylamino)-4-(methyloxy)phenyl]amino}-4-pyrimidinyl)-1,3-thiazol-4-yl]phenyl}-2,6-difluorobenzamide]
< 100 | < 100 | < 100 | < 100 | > 1000 | Nc1nc(-c2cccc(NC(=O)c3c(F)cccc3F)c2)c(-c2ccnc(Nc3ccc4c(c3)NC(=O)CO4)n2)s1 [Example 20, N-[3-(2-Amino-5-{2-[(3-oxo-3,4-dihydro-2H-1,4-benzoxaziN-6-yl)amino]-4-pyrimidinyl}-1,3-thiazol-4-yl)phenyl]-2,6-difluorobenzamide]
< 100 | < 100 | < 100 | < 100 | 100 to 1000 | O=C(Nc1cccc(-c2ncsc2-c2ccnc(Nc3ccc4c(c3)CNCC4)n2)c1)c1c(F)cccc1F [Example 91, 2,6-Difluoro-N-(3-{5-[2-(1,2,3,4-tetrahydro-7-isoquinolinylamino)-4-pyrimidinyl]-1,3-thiazol-4-yl}phenyl)benzamide]
< 100 | < 100 | < 100 | < 100 | > 1000 | O=C1COc2cc(Nc3nccc(-c4scnc4-c4cccc(NC(=O)c5cc(F)ccc5F)c4)n3)ccc2N1 [Example 98, 2,5-Difluoro-N-[3-(5-{2-[(3-oxo-3,4-dihydro-2H-1,4-benzoxaziN-7-yl)amino]-4-pyrimidinyl}-1,3-thiazol-4-yl)phenyl]benzamide hydrochloride]
< 100 | < 100 | 100 to 1000 | 100 to 1000 | > 1000 | O=C1COc2ccc(Nc3nccc(-c4scnc4-c4cccc(NC(=O)c5cc(F)ccc5F)c4)n3)cc2N1 [Example 99, 2,5-Difluoro-N-[3-(5-{2-[(3-oxo-3,4-dihydro-2H-1,4-benzoxaziN-6-yl)amino]-4-pyrimidinyl}-1,3-thiazol-4-yl)phenyl]benzamide hydrochloride]
< 100 | < 100 | < 100 | < 100 | > 1000 | Cc1nc(-c2cccc(NC(=O)c3c(F)cccc3F)c2)c(-c2ccnc(Nc3cccc(F)c3)n2)s1 [Example 101, 2,6-Difluoro-N-[3-(5-{2-[(3-fluorophenyl)amino]-4-pyrimidinyl}-2-methyl-1,3-thiazol-4-yl)phenyl]benzamide]
